Reference: patent US20260176289A1, “SMALL MOLECULE INHIBITORS OF KRAS PROTEINS” (Merck Sharp & Dohme LLC, priority 2022, published 2026)

How the values were obtained:
KRAS-WT = KRAS-WT (Homo sapiens, UniProt P01116); test: SOS-catalyzed nucleotide exchange assay (Procedure A, TR-FRET), KRAS-WT; type: biochemical; settings: nucleotide exchange, read-out: KRAS WT GNE IC50
Excerpt: (§1) Procedure for SOS-Catalyzed Nucleotide Exchange Assay for KRAS-WT, G12C/D/V, G13D, HRAS, and NRAS (Procedure A)
(§2) Recombinant KRAS-G12C protein used in this assay has an additional triple mutation (C51S/C80L/C118S). Whereas KRAS-WT, G12D/V, G13D, HRAS and NRAS are in context of their WT protein sequence background. Specifically, the SOS-catalyzed nucleotide exchange assay utilizes a preformed TR-FRET complex containing a specific biotinylated RAS protein (KRAS-WT, G12C/V/D, G13D, HRAS, NRAS; described above) with Bodipy-GDP, and Terbium-streptavidin. Compounds are preincubated with this complex for 60 minutes. Subsequently, recombinant human SOS protein and unlabeled GTP are added to initiate the exchange reaction. Small molecule inhibitors stabilize the Bodipy-GDP complex whereas the untreated protein rapidly exchanges Bodipy-GDP for unlabeled GTP resulting in reduced TR-FRET signal.
(§3) To assemble the preformed TR-FRET complexes, each biotinylated RAS protein is diluted to 2 μM in an EDTA Buffer (20 mM HEPES pH 7.5, 50 mM sodium chloride, 10 mM EDTA, and 0.01% Tween) and incubated at room temperature for one hour. This mixture is then further diluted to 90 nM in an Assay Buffer (20 mM HEPES pH 7.5, 150 mM sodium chloride, 10 mM magnesium chloride, and 0.005% Tween) containing 15 nM of Terbium-Streptavidin (Invitrogen, catalog #PV3577) and 900 nM of Bodipy-GDP (Invitrogen, catalog #G22360) and incubated at room temperature for six hours. It should be noted that this preformed TR-FRET complex for each of the RAS protein were made ahead of time, aliquoted and stored at −80° C. until the day of the experiment.
(§4) Each test compound (10 mM stock in DMSO) is diluted in DMSO to make a final-10-point, 3-fold dilution and is acoustically dispensed into a 384-well assay plate (Corning, catalog #3820) using an Echo 550 (Labcyte). Each well of the assay plate receives 3 μL of a specific 3×RAS preformed TR-FRET complex and 3 μL of Assay Buffer and is incubated at room temperature for 60 minutes (preincubation time). Each well then receives 3 μL of 3×recombinant human SOS protein and GTP (Sigma, G8877) in Assay Buffer and is incubated at room temperature for 30 minutes (G13D), 60 minutes (KRAS WT/G12C/D, H/NRAS) or 90 minutes for G12V. The final reaction in each well of 9 μL consists of 3 mM GTP, specific Ras and SOS proteins in the following concentrations: KRAS-G12C/SOS=3 nM/40 nM, KRAS-WT and G12D/SOS=1 nM/40 nM, KRAS-G12V/SOS=1.25 nM/160 nM. KRAS-G13D/SOS=1.25 nM/0 nM, HRAS and NRAS=1.25 nM/40 nM.
(§5) The time-resolved fluorescence resonance energy transfer (TR-FRET) signal is measured on an Envision (PerkinElmer) plate reader: Excitation filter=340 nm; emission 1=495 nm; emission2=520 nm; dichroic mirror=D400/D505; delay time=[…]. The signal of each well is determined as the ratio of the emission at 520 nm to that at 495 nm. Percent effect of each well is determined after normalization to control wells containing DMSO (no effect) or a saturating concentration of inhibitor (max effect). The apparent effect as a function of compound concentration is fit to a four-parameter logistic equation.

AsPC-1 cells = test: Cellular phospho-ERK assay, AsPC-1 cells (homozygous KRAS-G12D); type: cell-based; settings: Homo sapiens, ASPC1, 2 h, KRAS-G12D, 2 hours, read-out: AsPC1 pERK IC50
Description: Procedure for Cellular Phospho-ERK Assay in KRAS Wild Type and Mutant (G12D, G12V) Cell Lines
MKN-1 cells (JCRB JCRB0252) containing amplified wild-type KRAS, were cultured in growth medium that contains RPMI 1640-GlutaMAX™-I (ThermoFisher Scientific 61870) containing 10% heat inactivated fetal bovine serum (ThermoFisher Scientific 10091148), 1 mM sodium pyruvate and 10 mM HEPES. PANC08.13 cells (ATCC® CRL-2551™), containing homozygous KRAS-G12D activating mutation, were cultured in growth medium made of RPMI1640-GlutaMAX™-I (ThermoFisher Scientific 61870) containing 15% heat inactivated fetal bovine serum (ThermoFisher Scientific 10091148)). AsPC-1 cells (ATCC® CRL-1682™), containing homozygous KRAS-G12D activating mutation, were cultured in T150 flask in growth medium (RPMI medium 1640-GlutaMAX™-I (ThermoFisher Scientific 61870) containing 10% fetal bovine serum (ThermoFisher Scientific 10091148)). SW620 cells (ATCC® […]), containing homozygous KRAS-G12V activating mutation, were cultured in growth medium that contains RPMI 1640-GlutaMAX™-I (ThermoFisher Scientific 61870) containing 10% heat inactivated fetal bovine serum (ThermoFisher Scientific 10091148).
Cells for the assay were harvested in growth medium after TrypLE (ThermoFisher scientific 12604021) digestion and were seeded in a 384-well collagen coated cell culture plate (Corning 356702) at a density of 10,000-15,000 cells/20 μL/well, and incubated at 37° C., 5% CO2 overnight. The compound (with 10 mM stock concentration) dose-response titrations were prepared [30 μM final ERK detection assay concentration and 1:3 dilutions, 10-point dose response] and appropriate amounts (270 nL) of test compounds were dispensed in a 384-well intermediate plate using an Echo 550 liquid handler. 30 μL/well of RPMI medium 1640-GlutaMAX™—I was added to the intermediate plate and the contents of the intermediate plate (10 μL/well) were then transferred to the 384-well collagen coated cell culture plate, which was incubated at 37° C., 5% CO2 for 2 hours. After removal of medium from the collagen coated cell culture plate, cells were lysed in lysis buffer from Alpha SureFire® Ultra™ Multiplex p-ERK and total ERK assay kit (PerkinElmer MPSU-PTERK) containing Halt™ Protease and Phosphatase inhibitor cocktail (ThermoFisher Scientific 78446) at room temperature with constant shaking at 300 rpm for 30 minutes. The cell lysates were then transferred to an OptiPlate-384 plate (PerkinElmer 6005620), and the phosphorylation of ERK (p-ERK) and total ERK levels were detected by Alpha SureFire® Ultra™ Multiplex p-EEK kit and total ERK assay kit (PerkinElmer MPSU-PTERK) following the manufacturer's protocol. Assay plates were read on a En Vision Multimode Plate Reader (PerkinElmer), and the ratio of p-ERK vs. total ERK in each well was used as the final readout. Dose response curves were analyzed using a 4-parameter logistic model to calculate IC50 values using Spotfire software.

KRAS-G12D = KRAS-G12D (Homo sapiens, UniProt P01116, G12D); test: SOS-catalyzed nucleotide exchange assay (Procedure A, TR-FRET), KRAS-G12D; type: biochemical; settings: nucleotide exchange, read-out: KRAS G12D GNE IC50
Excerpt: as §1, §2, §3, §4, §5

KRAS-G12V = KRAS-G12V (Homo sapiens, UniProt P01116, G12V); test: SOS-catalyzed nucleotide exchange assay (Procedure A, TR-FRET), KRAS-G12V; type: biochemical; settings: nucleotide exchange, read-out: KRAS G12V GNE IC50
Excerpt: as §1, §2, §3, §4, §5

Chain of KRAS-G12D (P01116 with tags, fused parts or gaps isoform P01116-2 G12D): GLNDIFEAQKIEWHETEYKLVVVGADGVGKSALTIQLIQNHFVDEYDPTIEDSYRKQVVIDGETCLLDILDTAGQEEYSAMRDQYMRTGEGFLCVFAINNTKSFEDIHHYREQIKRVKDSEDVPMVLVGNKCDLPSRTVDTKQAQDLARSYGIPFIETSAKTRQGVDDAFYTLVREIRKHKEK
Chain of KRAS-G12V (P01116 with tags, fused parts or gaps isoform P01116-2 G12V): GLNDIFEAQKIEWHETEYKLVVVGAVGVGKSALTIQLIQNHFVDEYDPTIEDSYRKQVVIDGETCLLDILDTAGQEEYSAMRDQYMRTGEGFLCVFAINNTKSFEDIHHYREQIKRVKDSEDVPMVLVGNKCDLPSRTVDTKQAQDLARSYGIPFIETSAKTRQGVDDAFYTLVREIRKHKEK
Chain of KRAS-WT (P01116 with tags, fused parts or gaps isoform P01116-2): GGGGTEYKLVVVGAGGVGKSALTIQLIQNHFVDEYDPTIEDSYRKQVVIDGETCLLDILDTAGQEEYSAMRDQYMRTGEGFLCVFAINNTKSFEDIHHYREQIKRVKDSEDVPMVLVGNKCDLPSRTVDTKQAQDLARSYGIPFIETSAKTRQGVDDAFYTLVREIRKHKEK

IC50 (KRAS-WT) | IC50 (AsPC-1 cells) | IC50 (KRAS-G12D) | IC50 (KRAS-G12V) | SMILES
67.8 nM | 636 nM | 23.1 nM | 57.6 nM | Cc1cc2[nH]ncc2c(-c2nccn3c2c(Cl)c2nc(OC[C@@]45CCCN4C[C@H](F)C5)nc(N4CCOC[C@@](C)(O)C4)c23)c1C1CC1 (single isomer, unassigned) [Ex-297]
22.4 nM | 258 nM | 8.96 nM | 24.7 nM | Cc1cc2[nH]ncc2c(-c2nccc3c2C2(CC2)c2nc(OC[C@@]45CCCN4C[C@H](F)C5)nc(N4CCOC[C@@](C)(O)C4)c2-3)c1C(F)(F)F (single isomer, unassigned) [Ex-307]
277 nM | – | 104 nM | 103 nM | Cc1cc2[nH]ncc2c(-c2nccc3c2sc2nc(OC[C@@]45CCCN4C[C@H](F)C5)nc(N4CCOC[C@@](C)(O)C4)c23)c1C(C)(C)C#N [Ex-154, 2-(4-(2-(((2R,7aS)-2-fluorotetrahydro-1H-pyrrolizin-7a(5H)-yl)methoxy)-4-((S)-6-hydroxy-6-methyl-1,4-oxazepan-4-yl)pyrido[4′,3′:4,5]thieno[2,3-d]pyrimidin-8-yl)-6-methyl-1H-indazol-5-yl)-2-methylpropanenitrile]
39.9 nM | – | 12.7 nM | 21.5 nM | C=C1CN2CC(=C)CC2(COc2nc(N3CCOC[C@@](C)(O)C3)c3c(n2)sc2c(-c4c(C5CC5)c(Cl)cc5[nH]ncc45)nccc23)C1 [Ex-225, (6S)-4-(8-(6-chloro-5-cyclopropyl-1H-indazol-4-yl)-2-((2,6-dimethylene-tetrahydro-1H-pyrrolizin-7a(5H)-yl)methoxy)pyrido [4′,3′:4,5]thieno[2,3-d]pyrimidin-4-yl)-6-methyl-1,4-oxaze-pan-6-ol]

Continued, compound first:

SMILES | IC50 (KRAS-WT) | IC50 (AsPC-1 cells) | IC50 (KRAS-G12D) | IC50 (KRAS-G12V)
Cn1c2nc(OC[C@@]34CCCN3C[C@H](F)C4)nc(N3CCOC[C@@](C)(O)C3)c2c2ccnc(-c3c(C4CC4)c(Cl)cc4[nH]ncc34)c21 (single isomer, unassigned) [Ex-2] | 64 nM | 426 nM | 35.4 nM | 36.8 nM
CC1CCc2cccc(-c3nccc4c3sc3nc(OC[C@@]56CCCN5C[C@H](F)C6)nc(N5CCOC[C@@](C)(O)C5)c34)c21 (single isomer, unassigned) [Ex-117] | 218 nM | 720 nM | 73.6 nM | 96.1 nM
CC1CCc2ccc(F)c(-c3nccc4c3sc3nc(OC[C@@]56CCCN5C[C@H](F)C6)nc(N5CCOC[C@@](C)(O)C5)c34)c21 (single isomer, unassigned) [Ex-118] | 432 nM | 1060 nM | 150 nM | 123 nM
C[C@@]1(O)COCCN(c2nc(OC[C@@]34CCCN3C[C@H](F)C4)nc3sc4c(-c5cccc6c5CC5CC65)nccc4c23)C1 (single isomer, unassigned) [Ex-119] | 662 nM | 2150 nM | 230 nM | 157 nM
C#Cc1c(F)ccc2cc3[nH]ncc3c(-c3nccc4c5c(N6CCOC[C@@](C)(O)C6)nc(OC[C@@]67CCCN6C[C@H](F)C7)nc5n(C)c34)c12 [Ex-25, (6S)-4-(8-(5-ethynyl-6-fluoro-1H-benzo[f]indazol-4-yl)-2-(((2R,7aS)-2-fluorotetrahydro-1H-pyrrolizin-7a(5H)-yl)methoxy)-9-methyl-9H-pyrido[4′,3′:4,5]pyrrolo[2,3-d]pyrimidin-4-yl)-6-methyl-1,4-oxazepan-6-ol] | 136 nM | 1150 nM | 61.6 nM | 89.8 nM
COc1cc2c(sc3nc(OC[C@@]45CCCN4C[C@H](F)C5)nc(N4CCOC[C@@](C)(O)C4)c32)c(-c2c(C(F)(F)F)c(C)cc3[nH]ncc23)n1 [Ex-27, (6S)-4-(2-(((2R,7aS)-2-fluorotetrahydro-1H-pyrrolizin-7a(5H)-yl)methoxy)-6-methoxy-8-(6-methyl-5-(trifluoromethyl)-1H-indazol-4-yl)pyrido[4′,3′:4,5]thieno[2,3-d]pyrimidin-4-yl)-6-methyl-1,4-oxazepan-6-ol] | 793 nM | 660 nM | 196 nM | 221 nM
Cc1cc2[nH]ncc2c(-c2nc(-c3ccoc3)cc3c2sc2nc(OC[C@@]45CCCN4C[C@H](F)C5)nc(N4CCOC[C@@](C)(O)C4)c23)c1C(F)(F)F [Ex-29, (6S)-4-(2-(((2R,7aS)-2-fluorotetrahydro-1H-pyrrolizin-7a(5H)-yl)methoxy)-6-(furan-3-yl)-8-(6-methyl-5-(trifluoromethyl)-1H-indazol-4-yl)pyrido[4′,3′:4,5]thieno[2,3-d]pyrimidin-4-yl)-6-methyl-1,4-oxazepan-6-ol] | 852 nM | 1530 nM | 251 nM | 143 nM
C[C@@]1(O)COCCN(c2nc(OC[C@@]34CCCN3C[C@H](F)C4)nc3sc4c(-c5cccc(Cl)c5C5CC5)nccc4c23)C1 [Ex-122, (S)-4-(8-(3-chloro-2-cyclopropylphenyl)-2-(((2R,7aS)-2-fluorotetrahydro-1H-pyrrolizin-7a(5H)-yl)methoxy)pyri-do[4′,3′:4,5]thieno[2,3-d]pyrimidin-4-yl)-6-methyl-1,4-oxazepan-6-ol] | 908 nM | – | 404 nM | 280 nM
